According to ChEMBL document CHEMBL1201862, “PubChem BioAssay data set” (2004):
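Method: 48-hour compound exposure of cells in 96-well plates, five concentrations, linear interpolation of endpoints. Here, GI50 denotes the concentration required for 50% inhibition of growth.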 Calls of active or inactive are those of the source. Cut-off read from the data, not from the text of the source: active = GI50 up to about 1.1 µM and inactive = higher.

What was measured:
Assay in all cases: NCI-60 cell line screen, 48 h
COLO 205 = tested on: COLO 205
MCF7 = tested on: MCF7
MDA-N = tested on: MDA-N
TK-10 = tested on: TK-10
MOLT-4 = tested on: MOLT-4
UACC-62 = tested on: UACC-62
OVCAR-4 = tested on: OVCAR-4
HOP-92 = tested on: HOP-92
HCT-116 = tested on: HCT-116
SK-MEL-5 = tested on: SK-MEL-5
U-251 = tested on: U-251
SK-OV-3 = tested on: SK-OV-3
CAKI-1 = tested on: CAKI-1
PC-3 = tested on: PC-3
M14 = tested on: M14
DU-145 = tested on: DU-145
K562 = tested on: K562
MDA-MB-435 = tested on: MDA-MB-435
UO-31 = tested on: UO-31
MDA-MB-231 = tested on: MDA-MB-231
EKVX = tested on: EKVX
CCRF-CEM = tested on: CCRF-CEM
HCC 2998 = tested on: HCC 2998
BT-549 = tested on: BT-549
SR = tested on: SR
OVCAR-8 = tested on: OVCAR-8
IGROV-1 = tested on: IGROV-1
RXF 393 = tested on: RXF 393
NCI-H23 = tested on: NCI-H23
A549 = tested on: A549
SNB-19 = tested on: SNB-19
Malme-3M = tested on: Malme-3M
ACHN = tested on: ACHN
SF-268 = tested on: SF-268
SW-620 = tested on: SW-620
Hs-578T = tested on: Hs-578T
LOX IMVI = tested on: LOX IMVI
A498 = tested on: A498
HL-60 = tested on: HL-60
UACC-257 = tested on: UACC-257
SK-MEL-28 = tested on: SK-MEL-28
NCI/ADR-RES = tested on: NCI/ADR-RES
OVCAR-5 = tested on: OVCAR-5
NCI-H460 = tested on: NCI-H460
HOP-62 = tested on: HOP-62
786-0 = tested on: 786-0
SF-539 = tested on: SF-539
HCT-15 = tested on: HCT-15
SN12C = tested on: SN12C
SK-MEL-2 = tested on: SK-MEL-2
OVCAR-3 = tested on: OVCAR-3
HT-29 = tested on: HT-29
RPMI-8226 = tested on: RPMI-8226
T47D = tested on: T47D
KM12 = tested on: KM12
NCI-H522 = tested on: NCI-H522
NCI-H226 = tested on: NCI-H226
SF-295 = tested on: SF-295
SNB-75 = tested on: SNB-75

Cc1nc2ccc(S(=O)(=O)NS(=O)(=O)c3ccc(-c4ccccc4)cc3)cc2c(=O)n1NS(=O)(=O)c1ccc(-c2ccccc2)cc1
GI50 (COLO 205): > 100 µM (inactive)
GI50 (MCF7): > 100 µM (inactive)
GI50 (MDA-N): > 100 µM (inactive)
GI50 (TK-10): > 100 µM (inactive)
GI50 (MOLT-4): > 100 µM (inactive)
GI50 (UACC-62): > 100 µM (inactive)
GI50 (OVCAR-4): 60 µM (inactive)
GI50 (HOP-92): 23.4 µM (inactive)
GI50 (HCT-116): > 100 µM (inactive)
GI50 (SK-MEL-5): > 100 µM (inactive)
GI50 (U-251): > 100 µM (inactive)
GI50 (SK-OV-3): > 100 µM (inactive)
GI50 (CAKI-1): > 100 µM (inactive)
GI50 (PC-3): > 100 µM (inactive)
GI50 (M14): > 100 µM (inactive)
GI50 (DU-145): > 100 µM (inactive)
GI50 (K562): > 100 µM (inactive)
GI50 (MDA-MB-435): > 100 µM (inactive)
GI50 (UO-31): > 100 µM (inactive)
GI50 (MDA-MB-231): > 100 µM (inactive)
GI50 (EKVX): 68.2 µM (inactive)
GI50 (CCRF-CEM): > 100 µM (inactive)
GI50 (HCC 2998): > 100 µM (inactive)
GI50 (BT-549): > 100 µM (inactive)
GI50 (SR): > 100 µM (inactive)
GI50 (OVCAR-8): 77.4 µM (inactive)
GI50 (IGROV-1): 38.3 µM (inactive)
GI50 (RXF 393): > 100 µM (inactive)
GI50 (NCI-H23): > 100 µM (inactive)
GI50 (A549): > 100 µM (inactive)
GI50 (SNB-19): > 100 µM (inactive)
GI50 (Malme-3M): > 100 µM (inactive)
GI50 (ACHN): > 100 µM (inactive)
GI50 (SF-268): > 100 µM (inactive)
GI50 (SW-620): > 100 µM (inactive)
GI50 (Hs-578T): > 100 µM (inactive)
GI50 (LOX IMVI): > 100 µM (inactive)
GI50 (A498): 0.753 µM (active)
GI50 (HL-60): > 100 µM (inactive)
GI50 (UACC-257): > 100 µM (inactive)
GI50 (SK-MEL-28): > 100 µM (inactive)
GI50 (NCI/ADR-RES): > 100 µM (inactive)
GI50 (OVCAR-5): > 100 µM (inactive)
GI50 (NCI-H460): > 100 µM (inactive)
GI50 (HOP-62): > 100 µM (inactive)
GI50 (786-0): > 100 µM (inactive)
GI50 (SF-539): > 100 µM (inactive)
GI50 (HCT-15): > 100 µM
GI50 (SN12C): > 100 µM (inactive)
GI50 (SK-MEL-2): > 100 µM (inactive)
GI50 (OVCAR-3): > 100 µM (inactive)
GI50 (HT-29): > 100 µM (inactive)
GI50 (RPMI-8226): > 100 µM (inactive)
GI50 (T47D): > 100 µM (inactive)
GI50 (KM12): > 100 µM (inactive)
GI50 (NCI-H522): > 100 µM (inactive)
GI50 (NCI-H226): > 100 µM (inactive)
GI50 (SF-295): > 100 µM (inactive)
GI50 (SNB-75): > 100 µM (inactive)
